The inhibition is the relative decrease from the control value, in per cent.

Our source for the inhibition values is patent US20090075951A1, “Methods and Reagents for the Treatment of Inflammatory Disorders” (CombinatoRx, Inc., priority 2003, published 2009).

This assay deals with TNFα secretion from PMA/ionomycin stimulated white blood cells from human buffy coat. Description: TNFα secretion assay, PMA/ionomycin stimulation.

Like-named read-outs stand apart in the source and are kept apart here.

Method: Various concentrations of each test compound were added at the time of stimulation. […] After the plate was washed with 0.1% Tween 20/PBS, an HRP-luminescent substrate was added to each well and light intensity measured using a LJL Analyst plate luminometer.

Regarding `C[C@H]1C[C@H]2[C@@H]3CCC4=CC(=O)C=C[C@]4(C)[C@@]3(F)[C@@H](O)C[C@]2(C)[C@@]1(O)C(=O)CO` [Betamethasone], the inhibition at […] reads like this: (read-out: inhibition of TNFα secretion, Betamethasone 38 nM, Imipramine nM: 0, 99, 394, 1578, 6311, 25000) 35.8%; (read-out: inhibition of TNFα secretion, Betamethasone 38 nM, Nortriptyline nM: 0, 52, 208, 834, 3336, 13000) 9.93%; (read-out: percent inhibition of TNFα secretion, Betamethasone 38 nM, Amoxapine nM: 0, 12, 50, 199, 797, 3187) 26.3%; (read-out: percent inhibition of TNFα secretion, Betamethasone 38 nM, Clomipramine nM: 0, 45, 178, 712, 2848, 11000) 36%; (read-out: percent inhibition of TNFα secretion, Betamethasone 38 nM, Desipramine nM: 0, 50, 200, 799, 3197, 13000) 17.3%. Further, the inhibition at 2.434 µM is, setting by setting: (read-out: inhibition of TNFα secretion, Betamethasone 2434 nM, Nortriptyline nM: 0, 52, 208, 834, 3336, 13000) 38.9%; (read-out: percent inhibition of TNFα secretion, Betamethasone 2434 nM, Desipramine nM: 0, 50, 200, 799, 3197, 13000) 48.9%.

`CCCC1O[C@@H]2C[C@H]3[C@@H]4CCC5=CC(=O)C=C[C@]5(C)[C@H]4[C@@H](O)C[C@]3(C)[C@]2(C(=O)CO)O1` (stereo partly drawn) [Budesonide, budesonide]: the inhibition at […] runs as follows: (read-out: inhibition of TNFα secretion, Budesonide 35 nM, Imipramine nM: 0, 99, 394, 1578, 6311, 25000) 42.1%; (read-out: inhibition of TNFα secretion, Budesonide 35 nM, Nortriptyline nM: 0, 52, 208, 834, 3336, 13000) 36%; (read-out: inhibition of TNFα secretion, Budesonide 35 nM, Protriptyline nM: 0, 52, 208, 834, 3336, 13000) 44.5%; (read-out: percent inhibition of TNFα secretion, Budesonide 35 nM, Amitriptyline nM: 0, 50, 199, 796, 3186, 13000) 42%; (read-out: percent inhibition of TNFα secretion, Budesonide 35 nM, Amoxapine nM: 0, 12, 50, 199, 797, 3187) 36.7%; (read-out: percent inhibition of TNFα secretion, Budesonide 35 nM, Clomipramine nM: 0, 45, 178, 712, 2848, 11000) 45.3%. Also, under “read-out: percent inhibition of TNFα secretion, Budesonide 35 nM, Desipramine nM: 0, 50, 200, 799, 3197, 13000”, the inhibition at […] is 48.1%.

Take `C[C@@H]1C[C@H]2[C@@H]3CCC4=CC(=O)C=C[C@]4(C)[C@@]3(F)[C@@H](O)C[C@]2(C)[C@@]1(O)C(=O)CO` [Dexamethasone, dexamethasone]: the inhibition at […] worked out at 31.3% (read-out: inhibition of TNFα secretion, Dexamethasone 38 nM, Desipramine nM: 0, 50, 200, 799, 3197, 13000); 30% (read-out: inhibition of TNFα secretion, Dexamethasone 38 nM, Imipramine nM: 0, 99, 394, 1578, 6311, 25000); 31% (read-out: inhibition of TNFα secretion, Dexamethasone 38 nM, Nortriptyline nM: 0, 52, 208, 834, 3336, 13000); 31.1% (read-out: percent inhibition of TNFα secretion, Dexamethasone 38 nM, Amitriptyline nM: 0, 50, 199, 796, 3186, 13000); 32% (read-out: percent inhibition of TNFα secretion, Dexamethasone 38 nM, Amoxapine nM: 0, 12, 50, 199, 797, 3187); 35.6% (read-out: percent inhibition of TNFα secretion, Dexamethasone 38 nM, Clomipramine nM: 0, 45, 178, 712, 2848, 11000).

With `CC(=O)OCC(=O)[C@@]1(OC(C)=O)[C@@H](C)C[C@H]2[C@@H]3C[C@H](F)C4=CC(=O)C=C[C@]4(C)[C@@]3(F)[C@@H](O)C[C@@]21C` [Diflorasone Diacetate], the inhibition at 0.03 µM by setting is: (read-out: inhibition of TNFα secretion, Diflorasone Diacetate 30 nM, Desipramine nM: 0, 50, 200, 799, 3197, 13000) 25.4%; (read-out: inhibition of TNFα secretion, Diflorasone Diacetate 30 nM, Imipramine nM: 0, 99, 394, 1578, 6311, 25000) 29.6%; (read-out: inhibition of TNFα secretion, Diflorasone Diacetate 30 nM, Protriptyline nM: 0, 52, 208, 834, 3336, 13000) 28.2%; (read-out: percent inhibition of TNFα secretion, Diflorasone Diacetate 30 nM, Amitriptyline nM: 0, 50, 199, 796, 3186, 13000) 26.1%. Also, the inhibition at 1.941 µM is, setting by setting: (read-out: inhibition of TNFα secretion, Diflorasone Diacetate 1941 nM, Desipramine nM: 0, 50, 200, 799, 3197, 13000) 46.9%; (read-out: inhibition of TNFα secretion, Diflorasone Diacetate 1941 nM, Imipramine nM: 0, 99, 394, 1578, 6311, 25000) 45.8%; (read-out: inhibition of TNFα secretion, Diflorasone Diacetate 1941 nM, Protriptyline nM: 0, 52, 208, 834, 3336, 13000) 45.3%; (read-out: percent inhibition of TNFα secretion, Diflorasone Diacetate 1941 nM, Amitriptyline nM: 0, 50, 199, 796, 3186, 13000) 45.2%. For the setting “read-out: percent inhibition of TNFα secretion, Diflorasone Diacetate 38 nM, Clomipramine nM by grid row: r5 0, r6 12, r7 50, r8 199, r9 797, r10 3187”, the inhibition at […] came to 43.2%.

Take `C[C@]12CCC(=O)C=C1CC[C@@H]1[C@@H]2[C@@H](O)C[C@@]2(C)[C@H]1CC[C@]2(O)C(=O)CO` [Hydrocortisone, hydrocortisone]: the inhibition at […] was -1.79% (read-out: inhibition of TNFα secretion, Hydrocortisone 21 nM, Desipramine nM: 0, 50, 200, 799, 3197, 13000); -4.17% (read-out: inhibition of TNFα secretion, Hydrocortisone 21 nM, Imipramine nM: 0, 99, 394, 1578, 6311, 25000); 4.44% (read-out: inhibition of TNFα secretion, Hydrocortisone 21 nM, Nortriptyline nM: 0, 52, 208, 834, 3336, 13000); 2.86% (read-out: inhibition of TNFα secretion, Hydrocortisone 21 nM, Protriptyline nM: 0, 52, 208, 834, 3336, 13000); 9.01% (read-out: inhibition of TNFα secretion, Hydrocortisone 83 nM, Desipramine nM: 0, 50, 200, 799, 3197, 13000); 5.91% (read-out: inhibition of TNFα secretion, Hydrocortisone 83 nM, Imipramine nM: 0, 99, 394, 1578, 6311, 25000). Further, the inhibition at […] by setting is: (read-out: inhibition of TNFα secretion, Hydrocortisone 83 nM, Nortriptyline nM: 0, 52, 208, 834, 3336, 13000) 13.6%; (read-out: inhibition of TNFα secretion, Hydrocortisone 83 nM, Protriptyline nM: 0, 52, 208, 834, 3336, 13000) 13.6%; (read-out: percent inhibition of TNFα secretion, Hydrocortisone 21 nM, Amitriptyline nM: 0, 50, 199, 796, 3186, 13000) -2.95%; (read-out: percent inhibition of TNFα secretion, Hydrocortisone 21 nM, Amoxapine nM: 0, 12, 50, 199, 797, 3187) 1.78%; (read-out: percent inhibition of TNFα secretion, Hydrocortisone 21 nM, Clomipramine nM: 0, 45, 178, 712, 2848, 11000) -0.248%; (read-out: percent inhibition of TNFα secretion, Hydrocortisone 83 nM, Amitriptyline nM: 0, 50, 199, 796, 3186, 13000) 5.95%. In addition, the inhibition at […] (read-out: percent inhibition of TNFα secretion, Hydrocortisone 83 nM, Amoxapine nM: 0, 12, 50, 199, 797, 3187) was determined as 11.4% and the inhibition at […] (read-out: percent inhibition of TNFα secretion, Hydrocortisone 83 nM, Clomipramine nM: 0, 45, 178, 712, 2848, 11000) worked out at 9.9%. Further, the inhibition at 1.324 µM was determined as 34.4% (read-out: inhibition of TNFα secretion, Hydrocortisone 1324 nM, Desipramine nM: 0, 50, 200, 799, 3197, 13000); 30.3% (read-out: inhibition of TNFα secretion, Hydrocortisone 1324 nM, Imipramine nM: 0, 99, 394, 1578, 6311, 25000); 35.7% (read-out: inhibition of TNFα secretion, Hydrocortisone 1324 nM, Nortriptyline nM: 0, 52, 208, 834, 3336, 13000); 36.8% (read-out: inhibition of TNFα secretion, Hydrocortisone 1324 nM, Protriptyline nM: 0, 52, 208, 834, 3336, 13000); 32.2% (read-out: percent inhibition of TNFα secretion, Hydrocortisone 1324 nM, Amitriptyline nM: 0, 50, 199, 796, 3186, 13000); 31.6% (read-out: percent inhibition of TNFα secretion, Hydrocortisone 1324 nM, Amoxapine nM: 0, 12, 50, 199, 797, 3187). Besides, the inhibition at 1.324 µM (read-out: percent inhibition of TNFα secretion, Hydrocortisone 1324 nM, Clomipramine nM: 0, 45, 178, 712, 2848, 11000) worked out at 33%. Further, the inhibition at 5.297 µM is, setting by setting: (read-out: inhibition of TNFα secretion, Hydrocortisone 5297 nM, Desipramine nM: 0, 50, 200, 799, 3197, 13000) 38.6%; (read-out: inhibition of TNFα secretion, Hydrocortisone 5297 nM, Imipramine nM: 0, 99, 394, 1578, 6311, 25000) 33.8%; (read-out: inhibition of TNFα secretion, Hydrocortisone 5297 nM, Nortriptyline nM: 0, 52, 208, 834, 3336, 13000) 36.5%; (read-out: inhibition of TNFα secretion, Hydrocortisone 5297 nM, Protriptyline nM: 0, 52, 208, 834, 3336, 13000) 38.2%; (read-out: percent inhibition of TNFα secretion, Hydrocortisone 5297 nM, Amitriptyline nM: 0, 50, 199, 796, 3186, 13000) 36.9%; (read-out: percent inhibition of TNFα secretion, Hydrocortisone 5297 nM, Amoxapine nM: 0, 12, 50, 199, 797, 3187) 31.9%. Besides, the inhibition at 5.297 µM (read-out: percent inhibition of TNFα secretion, Hydrocortisone 5297 nM, Clomipramine nM: 0, 45, 178, 712, 2848, 11000) worked out at 37.1%.
